In patent publication US20240100146A1 (priority 2022, published 2024):

System: MHV1
Parameters: species or system A/J mice
Conditions: mouse, in vivo

CC(=O)N[C@H]1[C@H]([C@H](O)[C@H](O)CO)OC(C(=O)O)=C[C@@H]1N=C(N)N [zanamivir]
% protection (survival) against lethal MHV1 challenge: 0%
